Earlier results on one compound are cited in publication PMC12498288 (Frontiers in Immunology, 2025).

SMILES strings stand for the structures.

The series deals with SARS-CoV-2. More on the design: method as in PMID 38319178. The following applies: hospitalized COVID-19 patients with a similar CSS as in RESPIRE; cited from earlier work.

Take `CC(C)C(=O)OC[C@H]1O[C@@H](n2ccc(NO)nc2=O)[C@H](O)[C@@H]1O` [molnupiravir]: the viral load reduction entry was “no viral load reduction was observed”.
